These are literature values, as cited in patent US20150079197A1, “MEDICINE COMPRISING COMBINATION OF GENERAL ANESTHETIC AND HYDROGEN” (MARUISHI PHARMACEUTICAL CO., LTD., priority 2012, published 2015).

Molecules are shown by their SMILES.

One series deals with degenerated neurons. To be noted: neonatal rats, Non Patent Literature 30.

`FC(F)OC(Cl)C(F)(F)F` (stereo not shown) [isoflurane]: the neurodegeneration result in the series with degenerated neurons is recorded as “dose-dependent neurodegeneration”. Also, in the series on developing brains (cortex, as compared with the control), the “increase in the apoptosis level in the cortex” value was 4 fold. The “increase in the apoptosis level in the hippocampus” value in the series with developing brains (hippocampus) is given as 4 fold.
Regarding `[N-]=[N+]=O` [nitrous oxide], the neurodegeneration entry in the series with developing brains (alone) is “no neurodegeneration”.
